Patent publication US20040019092A1, “Non-peptide somatostatin receptor ligands” (priority 2001, published 2004)
“And” between values parts separate entries of the source, which are not always exact repeats. Identical values can stand only once. Like-named read-outs stand apart in the source and are kept apart here. Values belong to the compound of their own block, whether it stands above or below them.

Assays:
[1] = Brain penetration in rat after 48-hour intravenous infusion; assay type: in vivo; details: rats; for concentration at 48 h / Kp at 48 h: male, rat, iv, 100 μg/h; for Kp at 48 h: brain/whole blood
Description: The in vivo brain penetration of compound 42 after a 48-hour intravenous infusion was assessed. [^14C]-42-ch was intravenously administered to 5 male rats at a loading dose of 0.3 mg(-b)/rat and then infused at a constant rate of 100 μg(-b)/h for 48 hours using a syringe pump connected to the femoral vein. Immediately after stopping the infusion, the rats were sacrificed. Blood and brain were collected and analyzed for total radioactivity and unchanged compound 42.

in vivo = details: male, Wistar, rat
Description: The pharmacokinetic study was performed with 3 male Wistar rats (BRL) weighing 300-330 g with a one week interval between administration phases. The day before the first dosing, the rats underwent surgical implantation of an in-dwelling cannula; the right femoral artery was cannulated and the tube was passed subcutaneously to emerge at the back of the neck. The animals were individually housed in metabolism cages and fasted overnight before administrations.
The dose solution was administered (5 mL/kg) by gastric incubation.
The dose solution was administered (2 mL/kg) into the surgically exposed femoral vein.
During the study, 18 blood samples (100-500 μL) were taken, up to 48 hours post-dose from the cannulated femoral artery representing a total volume of 5.7 mL blood. The loss of blood was compensated by infusion of 6 times 1 mL of blood from donor rats. Urine samples were collected up to 48 hours post-dose. For the analysis of the in vivo brain distribution, 3 male rats were intravenously dosed (1 mg/kg or 72 μCi/kg) as described above. At 0.5 hours after administration, the rats were sacrificed; blood and brain were collected.
Determination of radioactivity in blood, plasma, brain homogenates and in urine, was carried out by direct liquid scintillation counting. Prior to radiometric determination, blood and tissue were solubilized in Solutron (Kontron Instruments, Zurich, Switzerland). After adding 10 mL of scintillation cocktail (Lumasafe, Lumac, Landgraaf, the Netherlands), all samples were counted in Tri-carb liquid scintillation analyzer (Canberra Packard, IL).
The procedure involved the addition of 5 μg of non-radiolabeled 42 to each blood sample as an internal standard. After adding 1 mL of acetonitrile, the sample was mixed with a Polytron mixer and centrifuged (234000×g, 30 minutes) in a Beckman centrifuge (Model TL100). The supernatant was evaporated in a vacuum centrifuge (Univapo 150H, Zivy). The residue was reconstituted in 250 μL of mobile phase-water (3:1 v/v) and centrifuged (3000×g, 60 s). The supernatant (200 μL) was injected onto HPLC. […] Compound 42 was separated from potential metabolites and endogenous compounds on a RP18 endcapped Superspher column, 125 mm×4 mm (Merck) at 45° C. The mobile phase consisted of 0.1% tetramethylammonium hydroxide—acetonitrile (500:500 v/v). The flow rate was 1 mL/min; the effluent was monitored at 260 nm. […] The limit of quantification was 0.3 ng/mL.
The peeling method was applied to describe the data by a compartment model approach, characterized by the following equation: C═C1*e^λ1−t+C2*e^λ2−t. The initial estimates of C1, λ1, C2, λ2 were taken to generate the best fit using the computer software ELSFIT. The estimates for half-lives were calculated as T1/2λi=ln2/λi.

[2] = Plasma protein binding, equilibrium dialysis, human plasma; assay type: in vitro ADME; details: 50-5000 ng/mL, 37° C.
Description: In vitro blood distribution and plasma protein binding. For blood distribution studies, fresh, heparinized rat blood (n=3) was spiked with [^14C]-42 to achieve the final concentrations of 5, 50, 500 and 5000 ng/mL. After a 30-minutes incubation at 4° C., 22° C. and 37° C., the samples were centrifuged (1600×g, 10 minutes, at the incubation temperature) to get plasma. The fraction free of 42 in plasma of rat and human was determined by equilibrium dialysis. Phosphate buffer was spiked with [^14C]-42 (50, 500, 5000 ng/mL) and dialyzed versus blank rat and human plasma at 37° C. for 2 hours. The radioactivity was determined in spiked blood samples, in plasma obtained after centrifugation and in both compartments after dialysis.

[3] = Capillary depletion of brain hemispheres; assay type: in vivo, rat; details: n=3 rats
Description: The brain extraction ratio E was calculated from E=BUI*0.62, where 0.62 represents the brain extraction ratio of tritiated water (Pardridge, W. M. et al. “Absence of albumin receptor on brain capillaries in vivo or in vitro” Am. J. Physiol, 1985, 249, E264-E267). In order to quantify a possible sequestration of [^14C]-42 by the brain microvasculature, the brain hemispheres of 3 rats were submitted to capillary depletion (Triguero, D, et al. “Capillary depletion method for quantifying the blood-brain barrier transcytosis of circulating peptides and plasma proteins” J. Neurochem, 1990, 54, 1882-1888). The ^14C-radioactivity observed in the pellet (capillary bed/endothelial cells and pericytes) was compared to the ^14C-radioactivity observed in the supernatant (transcytosis space/interstitial fluid).

[4] = target: T1, SS-1 sites (sst2 receptors) (Rattus norvegicus, UniProt P30680); assay: Ex-vivo binding of [^125I]-labeled Tyr^3 analogue of Octreotride (SS-1/sst2) in rat cortex and hippocampus after s.c. dosing; parameters: species or system Wistar rats; details: for NS non specific binding, individual animals / NS non specific binding, mean / SB specific binding, individual animals / SB specific binding, mean / TB total binding, individual animals / TB total binding, mean / percent specific binding remaining compared to controls: Tyr^3-Oct, 60 min
T1 construct: from tissue; host or cells: Wistar rat cerebral cortex and hippocampus homogenate
Description: Ex-vivo binding was used to determine to whether compound 14 (a potent sst2 receptor selective hydantoin) when applied peripherally to rates can cross the blood brain barrier, as robust behavioral models are not fully characterized and blood-brain penetration models are not routinely available. […] The rats were given saline or drug sub-cutaneously at the indicated dose (in saline) and killed 60 minutes after application with CO2. The brain was removed and placed on ice; the cerebral cortex and hippocampus were dissected out and weighted. […] The homogenate was stored on ice and used immediately or deep frozen (-70° C.) until used (1-3 days). […] The filters were dried and counted in a Wallac Beta plate counter. The tables list the effects of compound 14 on cortex (Table 6) and hippocampus (Table 7) binding at the doses and times indicated (see also FIGS. 3 and 4). TB=total binding, NS=non specific binding, SB=specific binding. The values are indicated in cpm for individual animals, mean, n=number of animals, sem=standard error of the mean; percent=% specific binding remaining following treatment compared to controls.

sst2 = sst2 (Homo sapiens, UniProt P30874); assay: sst2 cyclase (second messenger studies); assay type: cell-based
Source text: In particular the compounds of the invention bind to somatostatin receptors. More particularly they are selective agonists at Somatostatin sst2 receptors, as determined in radioligand binding and second messenger studies (see for example K. Kaupmann et al., FEBS LETTERS 1993, 331, […]).

[5] = 48 hours i.v. infusion 100 μg/h

T1 sequence (P30680 whole entry): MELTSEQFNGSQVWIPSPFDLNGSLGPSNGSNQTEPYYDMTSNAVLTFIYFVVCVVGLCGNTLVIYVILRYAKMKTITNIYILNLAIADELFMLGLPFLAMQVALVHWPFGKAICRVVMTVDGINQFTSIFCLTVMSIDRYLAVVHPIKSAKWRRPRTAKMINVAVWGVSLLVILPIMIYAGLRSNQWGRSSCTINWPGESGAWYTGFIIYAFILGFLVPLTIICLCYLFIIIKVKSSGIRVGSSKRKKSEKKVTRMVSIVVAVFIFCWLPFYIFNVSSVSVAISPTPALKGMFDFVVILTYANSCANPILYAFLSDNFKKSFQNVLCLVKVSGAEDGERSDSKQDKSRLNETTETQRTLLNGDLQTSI
Chain of sst2 (P30874 whole entry, species assumed): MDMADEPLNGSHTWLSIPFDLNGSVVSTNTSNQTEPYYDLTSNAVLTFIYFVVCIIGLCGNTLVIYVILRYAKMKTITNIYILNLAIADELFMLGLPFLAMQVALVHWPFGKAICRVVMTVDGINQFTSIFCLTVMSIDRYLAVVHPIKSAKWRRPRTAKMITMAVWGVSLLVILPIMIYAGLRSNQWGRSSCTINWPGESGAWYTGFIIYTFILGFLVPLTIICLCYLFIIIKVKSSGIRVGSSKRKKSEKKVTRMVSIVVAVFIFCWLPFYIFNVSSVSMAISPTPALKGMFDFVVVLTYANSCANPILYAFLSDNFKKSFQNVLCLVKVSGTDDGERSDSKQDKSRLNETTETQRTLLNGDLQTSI

concentration at 48 h ([1]; brain, 48 hours i.v. infusion 100 μg/h, read-out: Concentration in brain, MEAN ± SD): 18 ± 7 ng/g
Kp at 48 h ([1]; 48 hours i.v. infusion 100 μg/h, read-out: Brain/Blood Ratio, MEAN ± SD): 0.27 ± 0.07
Kp at 48 h ([1]; 48 hours i.v. infusion 100 μg/h, read-out: Brain/Blood Ratio, individual animals): 0.27
concentration at 48 h ([1]; whole blood, 48-hours i.v. infusion of 100 μg/h, read-out: blood concentration): 0.066 ± 0.014 µg/mL
concentration at 48 h ([1]; whole blood, 48 hours i.v. infusion 100 μg/h, read-out: Concentration in blood, MEAN ± SD): 66 ± 14 ng/g
concentration at 48 h ([1]; whole blood, 48 hours i.v. infusion 100 μg/h, read-out: Concentration in blood, individual animals): 59 ng/g
Brain/Blood Ratio, MEAN ± SD [1, 5]: 0.27 ± 0.07
Brain/Blood Ratio, individual animals [1, 5]: 0.27 and 0.38 and 0.21 and 0.22
Concentration in brain, MEAN ± SD [1, 5]: 18 ± 7 ng/g
bioavailability (in vivo): 1.3 ± 0.9%
Vd (in vivo; iv, 1 mg/kg): 20 L/kg
clearance (in vivo; iv, 1 mg/kg): 4.5 mL/min
half-life (in vivo; iv, first half-life t1/2λ1): 0.45 h
half-life (in vivo; iv, terminal half-life t1/2): 24 h
fraction free in human plasma [2]: 15-23%
fraction taken up by capillaries, of the brain penetration [3]: 5%
Structure (SMILES): N#Cc1cc(S(=O)(=O)N2C(=O)N(CCCCCN)C(=O)C2Cc2c[nH]c3ccccc23)ccc1Oc1ccc(N)cc1 (stereo not drawn) [Compound 42]
Concentration in brain, individual animals [1, 5]: 16 ng/g (2×) and 21 ng/g and 29 ng/g and 10 ng/g

Structure (SMILES): Cc1cccc2c(CC3C(=O)N(CCCCCN)C(=O)N3S(=O)(=O)c3ccc(Oc4ccc(O)cc4)c(C#N)c3)c[nH]c12 (stereo not drawn) [Compound 14]
maximal decrease of sst2 (SS-1) binding ([4]; cortex and hippocampus, 10 mg/kg subcutaneous, 60 minutes): about 20%
NS non specific binding, individual animals ([4]; cortex, 0.3 mg/kg s.c.): 2753 cpm and 2634 cpm and 2685 cpm
NS non specific binding, mean ([4]; cortex, 0.3 mg/kg s.c.): 2691 cpm
SB specific binding, individual animals ([4]; cortex, 0.3 mg/kg s.c.): 22427 cpm and 21257 cpm and 23789 cpm
SB specific binding, mean ([4]; cortex, 0.3 mg/kg s.c.): 22491 cpm
TB total binding, individual animals ([4]; cortex, 0.3 mg/kg s.c.): 25180 cpm and 23891 cpm and 26474 cpm
TB total binding, mean ([4]; cortex, 0.3 mg/kg s.c.): 25182 cpm
percent specific binding remaining compared to controls ([4]; cortex, 0.3 mg/kg s.c.): 98%
NS non specific binding, individual animals ([4]; cortex, 1 mg/kg s.c.): 2623 cpm and 2705 cpm and 2642 cpm
NS non specific binding, mean ([4]; cortex, 1 mg/kg s.c.): 2657 cpm
SB specific binding, individual animals ([4]; cortex, 1 mg/kg s.c.): 19722 cpm and 23378 cpm and 21824 cpm
SB specific binding, mean ([4]; cortex, 1 mg/kg s.c.): 21641 cpm
TB total binding, individual animals ([4]; cortex, 1 mg/kg s.c.): 22345 cpm and 26063 cpm and 24466 cpm
TB total binding, mean ([4]; cortex, 1 mg/kg s.c.): 24298 cpm
percent specific binding remaining compared to controls ([4]; cortex, 1 mg/kg s.c.): 94%
NS non specific binding, individual animals ([4]; cortex, 3 mg/kg s.c.): 2519 cpm and 2511 cpm and 2559 cpm
NS non specific binding, mean ([4]; cortex, 3 mg/kg s.c.): 2530 cpm
SB specific binding, individual animals ([4]; cortex, 3 mg/kg s.c.): 20444 cpm and 19624 cpm and 21700 cpm
SB specific binding, mean ([4]; cortex, 3 mg/kg s.c.): 20658 cpm
TB total binding, individual animals ([4]; cortex, 3 mg/kg s.c.): 22963 cpm and 22335 cpm and 24259 cpm
TB total binding, mean ([4]; cortex, 3 mg/kg s.c.): 23186 cpm
percent specific binding remaining compared to controls ([4]; cortex, 3 mg/kg s.c.): 90%
NS non specific binding, individual animals ([4]; cortex, 10 mg/kg s.c.): 2527 cpm and 2575 cpm and 2740 cpm
NS non specific binding, mean ([4]; cortex, 10 mg/kg s.c.): 2614 cpm
SB specific binding, individual animals ([4]; cortex, 10 mg/kg s.c.): 19525 cpm and 18340 cpm and 19640 cpm
SB specific binding, mean ([4]; cortex, 10 mg/kg s.c.): 19168 cpm
TB total binding, individual animals ([4]; cortex, 10 mg/kg s.c.): 22052 cpm and 20915 cpm and 22380 cpm
TB total binding, mean ([4]; cortex, 10 mg/kg s.c.): 21782 cpm
percent specific binding remaining compared to controls ([4]; cortex, 10 mg/kg s.c.): 84%
NS non specific binding, individual animals ([4]; hippocampus, 0.3 mg/kg s.c.): 2116 cpm and 2294 cpm and 2092 cpm
NS non specific binding, mean ([4]; hippocampus, 0.3 mg/kg s.c.): 2167 cpm
SB specific binding, individual animals ([4]; hippocampus, 0.3 mg/kg s.c.): 12566 cpm and 13303 cpm and 16338 cpm
SB specific binding, mean ([4]; hippocampus, 0.3 mg/kg s.c.): 14069 cpm
TB total binding, individual animals ([4]; hippocampus, 0.3 mg/kg s.c.): 14682 cpm and 15597 cpm and 18430 cpm
TB total binding, mean ([4]; hippocampus, 0.3 mg/kg s.c.): 16238 cpm
percent specific binding remaining compared to controls ([4]; hippocampus, 0.3 mg/kg s.c.): 113%
NS non specific binding, individual animals ([4]; hippocampus, 1 mg/kg s.c.): 2144 cpm and 1953 cpm and 1913 cpm
NS non specific binding, mean ([4]; hippocampus, 1 mg/kg s.c.): 2003 cpm
SB specific binding, individual animals ([4]; hippocampus, 1 mg/kg s.c.): 12048 cpm and 15010 cpm and 14100 cpm
SB specific binding, mean ([4]; hippocampus, 1 mg/kg s.c.): 13719 cpm
TB total binding, individual animals ([4]; hippocampus, 1 mg/kg s.c.): 14192 cpm and 16963 cpm and 16013 cpm
TB total binding, mean ([4]; hippocampus, 1 mg/kg s.c.): 15723 cpm
percent specific binding remaining compared to controls ([4]; hippocampus, 1 mg/kg s.c.): 110%
NS non specific binding, individual animals ([4]; hippocampus, 3 mg/kg s.c.): 1859 cpm and 1984 cpm and 1959 cpm
NS non specific binding, mean ([4]; hippocampus, 3 mg/kg s.c.): 1934 cpm
SB specific binding, individual animals ([4]; hippocampus, 3 mg/kg s.c.): 11172 cpm and 9232 cpm and 10980 cpm
SB specific binding, mean ([4]; hippocampus, 3 mg/kg s.c.): 10461 cpm
TB total binding, individual animals ([4]; hippocampus, 3 mg/kg s.c.): 13031 cpm and 11216 cpm and 12939 cpm
TB total binding, mean ([4]; hippocampus, 3 mg/kg s.c.): 12395 cpm
percent specific binding remaining compared to controls ([4]; hippocampus, 3 mg/kg s.c.): 84%
NS non specific binding, individual animals ([4]; hippocampus, 10 mg/kg s.c.): 1886 cpm and 2078 cpm and 2037 cpm
NS non specific binding, mean ([4]; hippocampus, 10 mg/kg s.c.): 2000 cpm
SB specific binding, individual animals ([4]; hippocampus, 10 mg/kg s.c.): 11059 cpm and 10041 cpm and 8937 cpm
SB specific binding, mean ([4]; hippocampus, 10 mg/kg s.c.): 10012 cpm
TB total binding, individual animals ([4]; hippocampus, 10 mg/kg s.c.): 12945 cpm and 12119 cpm and 10974 cpm
TB total binding, mean ([4]; hippocampus, 10 mg/kg s.c.): 12013 cpm
percent specific binding remaining compared to controls ([4]; hippocampus, 10 mg/kg s.c.): 80%
sst2 cyclase pEC50 (sst2): 9.32
